Results taken from patent US8759405B2, “Stevia extract or steviol for hair care” (DSM IP Assets B.V., priority 2009, dated 2014).
Entries after “also recorded” stand apart in the source; their conditions may differ.

Tests used:
aged C57B1/6J mice = test: Chronic steviol treatment, subjective rating of fur and skin condition pre- and post-treatment; type: in vivo; settings: 120 mg/kg/d in diet, 6 weeks, pre- vs post-treatment
Experimental: FIG. 2 Effects of chronic steviol treatment (120 mg/kg, p.o., 6 weeks) on (a) fur colour and (b) hair loss in aged C57B1/6J mice. […] [table] Female, aged, C57B1/6J mice (22-24 months of age) were assessed for their fur quality at the start and end of a six-week study. Prior to commencement of treatment, photographs were taken of all mice whilst under light anaesthesia (2.2-2.4% isofluorane). Mice were then fed either placebo diet or diet supplemented with steviol (120 mg/kg/d) for six weeks. At the end of the six week treatment phase, mice were again anaesthetised and further photographs were taken. Eleven participants with extensive experience of performing experimental studies using mice were asked to complete the same questionnaire (see Table 1), to enable subjective rating of a number of parameters of fur quality and of the appearance of skin wounds, by assessing the photographs taken before and after treatment. Statistical analyses were performed using Prism 5 (GraphPad Software, La Jolla, Calif., USA) and comprised two-way ANOVA (test factors: Time and Treatment), followed by Bonferroni post-hoc tests, where appropriate.

Human hair follicles [1] = test: Growth of human hair follicle (length measurements); type: cell-based
Experimental: (§1) Human hair follicles were obtained from human skin fragments (obtained by plastic surgery) and grown in supplemented William's E medium supplemented with penicillin/streptomycin, L-glutamine (2 mM/L), insulin (10 μg/mL and hydrocortisone (8 nM/L). Hair follicle growth was assessed via length measurements (days 0, 4, and 7). Triiodothyronine (T3, 30 μM/L) was used as positive control. The effect of steviol (at 0.625-5 μg/mL) was tested in parallel. On day 7, RNA was extracted from hair follicles that had been subjected to different treatments (control, T3, steviol). RNA was processed for Affymetrix® DNA microarray analysis in order to identify effects of compounds on gene expression. Where appropriate, RNA expression levels were further quantified by RT-PCR using the ABI 7900 Taqman instrumentation.

Human hair follicles [2] = test: Gene expression in human hair follicles by DNA microarray analysis; type: cell-based
Experimental: as §1, with “instrumentation. […] Global effects of steviol on gene expression were determined by transcriptomics i.e. DNA microarray analysis. The obtained data were processed with Genedata software tools. […] Thus another aspect of this invention is a method of up-regulating at least one of the genes listed in Table 3 comprising administering steviol and observing a hair growth effect.” for “instrumentation.”

human hair follicle = test: mRNA level of marker genes in human hair follicle by RT-PCR; type: cell-based
Experimental: as §1, with “The effect of steviol (at 0.625-5 μg/mL) was tested in parallel.” left out, “instrumentation. […] The mRNA level of some marker genes involved in growth and/or differentiation of cells in the skin and in hair follicle was further determined by RT-PCR and is shown in Table 4.” for “instrumentation.”

whole mouse skin = test: Gene expression in whole mouse skin by quantitative RT-PCR after dietary supplementation; type: in vivo, mice; settings: eight weeks
Experimental: The effect of steviol on gene expression was also analysed in whole mouse skin (also containing hair follicles). To this aim, mice were fed a normal diet or a diet supplemented with steviol (see also relevant data above). After eight weeks of supplementation, mice were sacrificed and skin was isolated and freed from hair. Quantitative RT-PCR was performed for selected genes using the same technology as described for hair follicles (see above). Remarkably, we identified changes in expression levels of some genes that are involved in skin physiology and homeostasis.

C=C1C[C@@]23CC[C@H]4[C@@](C)(CCC[C@@]4(C)C(=O)O)[C@@H]2CC[C@]1(O)C3 [Steviol, steviol]
fur colour (greying; subjective rating score) (aged C57B1/6J mice): significantly improved hair colour (i.e. reduced greying); also recorded: significantly improved fur colour
hair loss (subjective rating score) (aged C57B1/6J mice): significantly improved (i.e. reduced) hair loss
hair loss (subjective rating score) (aged C57B1/6J mice; listed as steviol): significant reduction of hair loss
Growth (% of control) (Human hair follicles [1]; 0.625 μg/mL): 122 % of control
Growth (% of control) (Human hair follicles [1]; 1.25 μg/mL): 121 % of control
Growth (% of control) (Human hair follicles [1]; 2.5 μg/mL): 113 % of control
Growth (% of control) (Human hair follicles [1]; 5 μg/mL): 117 % of control
elongation of hair follicles (Human hair follicles [1]; 0.625-5 μg/mL): dose-dependently favoured the elongation of hair follicles
Ratio of steviol-treated/untreated: CASP8 and FADD-like apoptosis regulator (Human hair follicles [2]; day 7, microarray): 2.58
Ratio of steviol-treated/untreated: Chemokine (C-X-C motif) ligand 12 (stromal cell-derived factor 1) (Human hair follicles [2]; day 7, microarray): 2.22
Ratio of steviol-treated/untreated: Collagen, type IV, alpha 6 (Human hair follicles [2]; day 7, microarray): 2.04
Ratio of steviol-treated/untreated: Fibroblast growth factor 7 (keratinocyte growth factor) (Human hair follicles [2]; day 7, microarray): 2.91
Ratio of steviol-treated/untreated: Insulin-like growth factor 1 receptor (Human hair follicles [2]; day 7, microarray): 2.00
Ratio of steviol-treated/untreated: Integrin, alpha 6 (Human hair follicles [2]; day 7, microarray): 2.15
Ratio of steviol-treated/untreated: TIMP metallopeptidase inhibitor 3 (Human hair follicles [2]; day 7, microarray): 2.32
Ratio of steviol-treated/untreated: Topoisomerase (DNA) II alpha 170 kDa (Human hair follicles [2]; day 7, microarray): 2.45
Ratio of steviol-treated/untreated: Transmembrane protein with EGF-like and two follistatin-like domains 2 (Human hair follicles [2]; day 7, microarray): 3.10
biological pathways whose gene expression is modulated (Human hair follicles [2]; microarray, Genedata pathway mapping): modulated gene expression of the pathways of epidermal development, ectoderm development and keratinocyte differentiation with a high statistical significance
Fold changes (versus control): Integrin alpha-6 (human hair follicle; 0.625 μg/mL): 1.62 ± 0.06 fold
Fold changes (versus control): COX-2 (human hair follicle; 1.25 μg/mL): 0.46 ± 0.17 fold
Fold changes (versus control): HO-1 (human hair follicle; 1.25 μg/mL): 0.64 ± 0.08 fold
Fold changes (versus control): Involucrin (human hair follicle; 1.25 μg/mL): 0.51 ± 0.22 fold
Fold changes (versus control): Keratin 6 (human hair follicle; 10 μg/mL): 1.33 ± 0.11 fold
% of control (based on fold-change): CXC10 (whole mouse skin): 132 ± 50 % of control
% of control (based on fold-change): IL-6 (whole mouse skin): 130 ± 31 % of control
% of control (based on fold-change): MMP-8 (whole mouse skin): 73 ± 23 % of control
% of control (based on fold-change): MMP-13 (whole mouse skin): 53 ± 9 % of control
% of control (based on fold-change): PPAR-δ (whole mouse skin): 60 ± 37 % of control
